Measured values from article PMC7265341, “Quantifying CDK inhibitor selectivity in live cells” (Nature Communications, 2020).
Like-named read-outs stand apart in the source and are kept apart here.

Legend:
CDK5/CDK5R1 = CDK5/CDK5R1 (Homo sapiens, UniProt Q00535); assay: NanoBRET live-cell target engagement, CDK5-NanoLuc/CDK5R1 in HEK-293; format: binding
CDK18/Cyclin Y = CDK18/Cyclin Y (Homo sapiens, UniProt Q07002); assay: NanoBRET live-cell target engagement, CDK18-NanoLuc/Cyclin Y in HEK-293; format: binding; conditions: CDK18/Y; for IC50: read-out: IC50
CDK15/Cyclin Y = CDK15/Cyclin Y (Homo sapiens, UniProt Q96Q40); assay: NanoBRET live-cell target engagement, NanoLuc-CDK15/Cyclin Y in HEK-293; format: binding
CDK10/Cyclin L2 = CDK10/Cyclin L2 (Homo sapiens, UniProt Q15131); assay: NanoBRET live-cell target engagement, CDK10-NanoLuc/Cyclin L2 in HEK-293; conditions: CDK10/L2
CDK20/Cyclin H = CDK20/Cyclin H (Homo sapiens, UniProt Q8IZL9); assay: NanoBRET live-cell target engagement, NanoLuc-CDK20/Cyclin H in HEK-293; format: binding; conditions: CDK20/H
CDK11A/Cyclin L2 = target: T1, CDK11A/Cyclin L2 (Homo sapiens, UniProt Q9UQ88); assay: NanoBRET live-cell target engagement, CDK11A-NanoLuc/Cyclin L2 in HEK-293; format: binding; conditions: CDK11a/L2
T1 sequence (Q9UQ88 1-783): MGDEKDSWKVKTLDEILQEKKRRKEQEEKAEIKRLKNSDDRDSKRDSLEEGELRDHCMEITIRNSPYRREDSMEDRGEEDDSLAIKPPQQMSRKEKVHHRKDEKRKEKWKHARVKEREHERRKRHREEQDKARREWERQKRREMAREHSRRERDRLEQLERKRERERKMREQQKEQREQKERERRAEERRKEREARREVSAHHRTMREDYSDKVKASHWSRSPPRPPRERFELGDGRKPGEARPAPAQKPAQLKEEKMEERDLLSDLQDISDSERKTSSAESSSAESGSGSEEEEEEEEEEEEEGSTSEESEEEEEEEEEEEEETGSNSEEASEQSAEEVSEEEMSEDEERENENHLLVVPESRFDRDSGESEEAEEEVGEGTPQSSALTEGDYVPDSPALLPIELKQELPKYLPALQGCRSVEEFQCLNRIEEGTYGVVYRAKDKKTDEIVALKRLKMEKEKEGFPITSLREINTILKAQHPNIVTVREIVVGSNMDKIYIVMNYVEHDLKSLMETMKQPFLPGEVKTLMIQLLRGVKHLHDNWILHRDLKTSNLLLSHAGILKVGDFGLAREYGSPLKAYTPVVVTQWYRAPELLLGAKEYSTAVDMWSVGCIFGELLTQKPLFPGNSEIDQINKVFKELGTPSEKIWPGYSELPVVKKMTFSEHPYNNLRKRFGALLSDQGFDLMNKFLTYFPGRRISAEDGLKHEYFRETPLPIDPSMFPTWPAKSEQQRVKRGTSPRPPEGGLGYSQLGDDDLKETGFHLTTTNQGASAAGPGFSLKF

CDK8/Cyclin C = CDK8/Cyclin C (Homo sapiens, UniProt P49336); assay: NanoBRET live-cell target engagement, NanoLuc-CDK8/Cyclin C in HEK-293; format: binding; conditions: CDK8/C
CDK6/Cyclin D1 = CDK6/Cyclin D1 (Homo sapiens, UniProt Q00534); assay: NanoBRET live-cell target engagement, NanoLuc-CDK6/Cyclin D1 in HEK-293; format: binding; conditions: CDK6/D1; for IC50: read-out: IC50
CDK17/Cyclin Y = CDK17/Cyclin Y (Homo sapiens, UniProt Q00537); assay: NanoBRET live-cell target engagement, CDK17-NanoLuc/Cyclin Y in HEK-293; format: binding; conditions: CDK17/Y; for IC50: read-out: IC50
CDK7 = CDK7 (Homo sapiens, UniProt P50613); assay: NanoBRET live-cell target engagement, NanoLuc-CDK7 in HEK-293; format: binding; conditions: CDK7; for IC50: read-out: IC50
CDK14/Cyclin Y = CDK14/Cyclin Y (Homo sapiens, UniProt O94921); assay: NanoBRET live-cell target engagement, CDK14-NanoLuc/Cyclin Y in HEK-293; format: binding; conditions: CDK14/Y
CDK14/Cyclin Y, sequence (O94921 whole entry): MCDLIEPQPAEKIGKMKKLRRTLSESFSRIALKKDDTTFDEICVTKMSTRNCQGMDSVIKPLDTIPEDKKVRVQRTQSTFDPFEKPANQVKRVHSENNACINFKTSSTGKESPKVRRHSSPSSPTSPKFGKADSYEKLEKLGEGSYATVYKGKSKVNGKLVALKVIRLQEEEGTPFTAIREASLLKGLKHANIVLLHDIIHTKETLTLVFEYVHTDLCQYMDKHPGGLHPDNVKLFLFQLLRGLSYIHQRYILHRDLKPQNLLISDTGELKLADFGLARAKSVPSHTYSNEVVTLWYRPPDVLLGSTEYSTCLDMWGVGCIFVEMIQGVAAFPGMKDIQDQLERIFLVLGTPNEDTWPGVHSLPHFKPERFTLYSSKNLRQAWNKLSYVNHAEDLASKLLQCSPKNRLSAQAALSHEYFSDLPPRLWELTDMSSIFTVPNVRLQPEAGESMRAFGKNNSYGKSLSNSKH
CDK14/Cyclin Y, sequence (Q8ND76 whole entry partner): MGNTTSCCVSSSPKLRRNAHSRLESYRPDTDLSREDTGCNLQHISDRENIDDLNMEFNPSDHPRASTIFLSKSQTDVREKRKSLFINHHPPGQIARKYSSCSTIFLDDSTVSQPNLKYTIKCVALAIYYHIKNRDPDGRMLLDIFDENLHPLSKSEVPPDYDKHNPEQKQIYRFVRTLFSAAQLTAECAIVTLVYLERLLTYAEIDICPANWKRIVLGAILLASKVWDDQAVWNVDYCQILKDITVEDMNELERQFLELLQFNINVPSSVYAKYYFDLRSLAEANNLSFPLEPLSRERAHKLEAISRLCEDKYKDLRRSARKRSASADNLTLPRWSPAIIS

CDK7, sequence (P50613 whole entry): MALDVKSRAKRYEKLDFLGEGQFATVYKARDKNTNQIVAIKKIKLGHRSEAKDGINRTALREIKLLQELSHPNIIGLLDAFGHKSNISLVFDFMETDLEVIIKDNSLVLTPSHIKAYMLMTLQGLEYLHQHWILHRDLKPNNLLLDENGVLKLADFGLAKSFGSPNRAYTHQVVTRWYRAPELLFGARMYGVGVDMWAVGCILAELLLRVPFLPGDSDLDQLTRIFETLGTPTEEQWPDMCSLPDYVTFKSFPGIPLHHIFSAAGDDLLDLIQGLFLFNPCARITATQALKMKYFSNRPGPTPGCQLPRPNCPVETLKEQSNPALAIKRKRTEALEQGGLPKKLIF
CDK6/Cyclin D1, sequence (Q00534 whole entry): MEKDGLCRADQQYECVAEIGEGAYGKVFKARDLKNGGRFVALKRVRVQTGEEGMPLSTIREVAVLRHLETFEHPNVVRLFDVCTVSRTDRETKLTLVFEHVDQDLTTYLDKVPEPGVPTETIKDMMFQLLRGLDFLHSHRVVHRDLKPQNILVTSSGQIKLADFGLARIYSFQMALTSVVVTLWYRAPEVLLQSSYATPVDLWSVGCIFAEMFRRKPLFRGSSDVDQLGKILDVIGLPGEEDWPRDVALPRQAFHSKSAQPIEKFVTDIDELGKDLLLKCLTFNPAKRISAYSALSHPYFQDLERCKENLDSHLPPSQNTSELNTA
CDK6/Cyclin D1, sequence (P24385 whole entry partner): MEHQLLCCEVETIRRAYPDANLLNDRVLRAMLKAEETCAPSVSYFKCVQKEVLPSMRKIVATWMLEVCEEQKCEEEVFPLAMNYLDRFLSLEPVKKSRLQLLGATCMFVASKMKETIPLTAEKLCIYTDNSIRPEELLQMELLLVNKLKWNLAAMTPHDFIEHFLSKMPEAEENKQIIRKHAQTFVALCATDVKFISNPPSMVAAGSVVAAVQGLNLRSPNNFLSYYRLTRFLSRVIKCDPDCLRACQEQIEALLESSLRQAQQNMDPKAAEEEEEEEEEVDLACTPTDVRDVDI
CDK17/Cyclin Y, sequence (Q00537 whole entry): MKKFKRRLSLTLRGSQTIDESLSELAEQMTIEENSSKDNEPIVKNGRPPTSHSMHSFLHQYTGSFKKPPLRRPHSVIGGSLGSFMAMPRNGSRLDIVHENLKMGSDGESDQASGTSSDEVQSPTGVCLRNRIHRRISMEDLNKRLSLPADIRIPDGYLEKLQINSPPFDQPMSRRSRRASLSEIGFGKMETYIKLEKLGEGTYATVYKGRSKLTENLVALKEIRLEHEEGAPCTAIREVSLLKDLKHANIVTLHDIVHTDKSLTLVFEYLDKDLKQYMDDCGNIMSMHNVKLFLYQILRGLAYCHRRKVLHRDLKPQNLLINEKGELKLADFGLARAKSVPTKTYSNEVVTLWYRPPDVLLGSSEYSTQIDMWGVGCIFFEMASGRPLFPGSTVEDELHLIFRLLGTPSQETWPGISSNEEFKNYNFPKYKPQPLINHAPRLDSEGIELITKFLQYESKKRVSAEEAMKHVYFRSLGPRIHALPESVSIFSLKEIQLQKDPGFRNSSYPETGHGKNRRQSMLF
CDK17/Cyclin Y, sequence (Q8ND76 whole entry partner): as the sequence (Q8ND76 whole entry partner) above
CDK18/Cyclin Y, sequence (Q07002 whole entry): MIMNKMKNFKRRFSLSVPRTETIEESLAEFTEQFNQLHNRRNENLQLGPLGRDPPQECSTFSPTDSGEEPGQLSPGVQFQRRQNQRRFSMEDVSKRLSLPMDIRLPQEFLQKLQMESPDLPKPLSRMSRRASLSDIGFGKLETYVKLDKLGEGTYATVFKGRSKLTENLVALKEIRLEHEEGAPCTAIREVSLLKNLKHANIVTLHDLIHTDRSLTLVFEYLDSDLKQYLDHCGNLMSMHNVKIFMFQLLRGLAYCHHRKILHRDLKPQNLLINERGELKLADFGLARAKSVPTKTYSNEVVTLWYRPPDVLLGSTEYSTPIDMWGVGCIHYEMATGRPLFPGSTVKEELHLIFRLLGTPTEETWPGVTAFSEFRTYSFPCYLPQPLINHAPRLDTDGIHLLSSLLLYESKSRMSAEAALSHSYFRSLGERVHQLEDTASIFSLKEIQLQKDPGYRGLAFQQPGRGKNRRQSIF
CDK18/Cyclin Y, sequence (Q8ND76 whole entry partner): as the sequence (Q8ND76 whole entry partner) above
CDK15/Cyclin Y, sequence (Q96Q40 whole entry): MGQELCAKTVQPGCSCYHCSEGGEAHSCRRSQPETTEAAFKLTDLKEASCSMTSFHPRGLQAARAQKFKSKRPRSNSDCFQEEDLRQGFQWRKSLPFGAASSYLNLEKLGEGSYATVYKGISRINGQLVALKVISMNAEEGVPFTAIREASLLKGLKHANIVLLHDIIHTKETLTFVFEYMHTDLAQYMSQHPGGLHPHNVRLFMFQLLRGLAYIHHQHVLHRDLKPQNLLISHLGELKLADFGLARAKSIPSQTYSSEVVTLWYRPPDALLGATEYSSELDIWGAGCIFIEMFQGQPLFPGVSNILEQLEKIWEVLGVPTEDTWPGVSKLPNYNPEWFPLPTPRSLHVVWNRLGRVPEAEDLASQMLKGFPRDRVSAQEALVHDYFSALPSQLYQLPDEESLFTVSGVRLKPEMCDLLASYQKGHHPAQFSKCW
CDK15/Cyclin Y, sequence (Q8ND76 whole entry partner): as the sequence (Q8ND76 whole entry partner) above
CDK5/CDK5R1, sequence (Q00535 whole entry): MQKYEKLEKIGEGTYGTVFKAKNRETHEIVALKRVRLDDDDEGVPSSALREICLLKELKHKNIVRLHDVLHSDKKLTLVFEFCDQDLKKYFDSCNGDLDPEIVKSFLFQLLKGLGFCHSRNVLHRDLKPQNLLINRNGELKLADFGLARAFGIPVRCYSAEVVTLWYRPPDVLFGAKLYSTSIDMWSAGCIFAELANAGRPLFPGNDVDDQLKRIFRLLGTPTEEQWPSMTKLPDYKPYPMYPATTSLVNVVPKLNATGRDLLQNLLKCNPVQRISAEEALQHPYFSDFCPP
CDK5/CDK5R1, sequence (Q15078 whole entry partner): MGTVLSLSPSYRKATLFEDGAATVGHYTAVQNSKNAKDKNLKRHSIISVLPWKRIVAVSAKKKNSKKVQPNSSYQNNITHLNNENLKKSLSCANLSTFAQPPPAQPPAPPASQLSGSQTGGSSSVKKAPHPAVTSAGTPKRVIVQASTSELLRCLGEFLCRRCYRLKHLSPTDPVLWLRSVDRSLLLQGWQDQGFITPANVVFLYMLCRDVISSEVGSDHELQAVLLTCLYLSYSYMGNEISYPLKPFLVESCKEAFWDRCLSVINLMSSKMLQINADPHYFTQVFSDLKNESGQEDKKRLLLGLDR
CDK8/Cyclin C, sequence (P49336 whole entry): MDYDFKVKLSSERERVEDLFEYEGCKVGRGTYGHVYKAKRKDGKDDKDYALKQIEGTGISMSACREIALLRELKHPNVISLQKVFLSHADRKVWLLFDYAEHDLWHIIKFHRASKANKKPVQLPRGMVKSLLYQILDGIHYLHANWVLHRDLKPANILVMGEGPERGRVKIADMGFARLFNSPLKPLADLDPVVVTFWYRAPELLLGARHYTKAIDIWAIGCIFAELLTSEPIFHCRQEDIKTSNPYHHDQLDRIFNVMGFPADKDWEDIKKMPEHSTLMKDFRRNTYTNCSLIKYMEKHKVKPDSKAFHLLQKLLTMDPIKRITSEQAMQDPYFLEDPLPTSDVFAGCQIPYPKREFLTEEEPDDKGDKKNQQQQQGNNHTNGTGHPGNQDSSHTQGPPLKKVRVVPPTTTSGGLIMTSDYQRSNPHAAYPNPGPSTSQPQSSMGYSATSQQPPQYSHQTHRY
CDK8/Cyclin C, sequence (P24863 whole entry partner): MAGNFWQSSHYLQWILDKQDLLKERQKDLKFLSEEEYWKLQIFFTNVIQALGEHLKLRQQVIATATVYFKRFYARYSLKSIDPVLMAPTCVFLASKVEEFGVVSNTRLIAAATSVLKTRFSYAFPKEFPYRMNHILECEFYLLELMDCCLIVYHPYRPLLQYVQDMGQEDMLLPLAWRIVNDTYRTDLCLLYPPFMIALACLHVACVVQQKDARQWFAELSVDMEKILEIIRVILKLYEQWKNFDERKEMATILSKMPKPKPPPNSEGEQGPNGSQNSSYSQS

Structure (SMILES): CC(C)c1cnn2c(NCc3ccccc3-n3cccn3)nc(OC3CCCNC3)nc12 (stereo not drawn) [LDC4297]
- Inhibition at 10µM (%) (CDK5/CDK5R1; CDK5/CDK5R1, experiment 2): 93.4%
- IC50 (CDK5/CDK5R1; CDK5/CDK5R1, experiment 2, read-out: IC50): 280 nM
- IC50 (CDK5/CDK5R1; CDK5/CDK5R1, experiment 3, read-out: IC50): 360 nM
- IC50 (CDK5/CDK5R1; live HEK-293, 2 h, mean ± S.E.M. (n=3) or mean (n=2), read-out: IC50 for CDK/cyclin complexes, CDK5/R1): 280 ± 50 nM
- Inhibition at 10µM (%) (CDK18/Cyclin Y; average): 97.4%
- IC50 (CDK18/Cyclin Y; average (± SEM where n=3)): 230 ± 30 nM
- Inhibition at 10µM (%) (CDK18/Cyclin Y; experiment 1): 93.4%
- IC50 (CDK18/Cyclin Y; experiment 1): 177 nM
- Inhibition at 10µM (%) (CDK18/Cyclin Y; experiment 2): 101.4%
- IC50 (CDK18/Cyclin Y; experiment 2): 260 nM
- IC50 (CDK18/Cyclin Y; experiment 3): 262 nM
- Inhibition at 10µM (%) (CDK15/Cyclin Y; CDK15/Y, average): 95.3%
- IC50 (CDK15/Cyclin Y; CDK15/Y, average (± SEM where n=3), read-out: IC50): 220 ± 20 nM
- Inhibition at 10µM (%) (CDK15/Cyclin Y; CDK15/Y, experiment 1): 95.2%
- IC50 (CDK15/Cyclin Y; CDK15/Y, experiment 1, read-out: IC50): 220 nM
- Inhibition at 10µM (%) (CDK15/Cyclin Y; CDK15/Y, experiment 2): 95.3%
- IC50 (CDK15/Cyclin Y; CDK15/Y, experiment 2, read-out: IC50): 260 nM
- IC50 (CDK15/Cyclin Y; CDK15/Y, experiment 3, read-out: IC50): 193 nM
- IC50 (CDK15/Cyclin Y; live HEK-293, 2 h, mean ± S.E.M. (n=3) or mean (n=2), read-out: IC50 for CDK/cyclin complexes, CDK15/Y): 220 ± 20 nM
- Inhibition at 10µM (%) (CDK10/Cyclin L2; average): 29.7%
- Inhibition at 10µM (%) (CDK10/Cyclin L2; experiment 1): 25.4%
- Inhibition at 10µM (%) (CDK10/Cyclin L2; experiment 2): 34.0%
- Inhibition at 10µM (%) (CDK20/Cyclin H; experiment 1): 53.8%
- Inhibition at 10µM (%) (CDK20/Cyclin H; experiment 2): 57.6%
- Inhibition at 10µM (%) (CDK11A/Cyclin L2; average): 56.5%
- Inhibition at 10µM (%) (CDK11A/Cyclin L2; experiment 1): 51.7%
- Inhibition at 10µM (%) (CDK11A/Cyclin L2; experiment 2): 61.3%
- Inhibition at 10µM (%) (CDK8/Cyclin C; average): 3.8%
- Inhibition at 10µM (%) (CDK8/Cyclin C; experiment 1): 14.8%
- Inhibition at 10µM (%) (CDK8/Cyclin C; experiment 2): -7.1%
- Inhibition at 10µM (%) (CDK6/Cyclin D1; average): 27.5%
- IC50 (CDK6/Cyclin D1; average (± SEM where n=3)): 110 ± 80 nM
- Inhibition at 10µM (%) (CDK6/Cyclin D1; experiment 1): 31.4%
- IC50 (CDK6/Cyclin D1; experiment 1): 9 nM
- Inhibition at 10µM (%) (CDK6/Cyclin D1; experiment 2): 23.6%
- IC50 (CDK6/Cyclin D1; experiment 2): 270 nM
- IC50 (CDK6/Cyclin D1; experiment 3): 50 nM
- Inhibition at 10µM (%) (CDK17/Cyclin Y; average): 90.8%
- IC50 (CDK17/Cyclin Y; average (± SEM where n=3)): 200 ± 20 nM
- Inhibition at 10µM (%) (CDK17/Cyclin Y; experiment 1): 89.8%
- IC50 (CDK17/Cyclin Y; experiment 1): 194 nM
- Inhibition at 10µM (%) (CDK17/Cyclin Y; experiment 2): 91.8%
- IC50 (CDK17/Cyclin Y; experiment 2): 170 nM
- IC50 (CDK17/Cyclin Y; experiment 3): 242 nM
- Inhibition at 10µM (%) (CDK7; average): 93.9%
- IC50 (CDK7; average (± SEM where n=3)): 22 ± 6 nM
- Inhibition at 10µM (%) (CDK7; experiment 1): 93.7%
- IC50 (CDK7; experiment 1): 17 nM
- Inhibition at 10µM (%) (CDK7; experiment 2): 94.2%
- IC50 (CDK7; experiment 2): 15 nM
- IC50 (CDK7; experiment 3): 33 nM
- Inhibition at 10µM (%) (CDK14/Cyclin Y; average): 89.0%
- Inhibition at 10µM (%) (CDK14/Cyclin Y; experiment 1): 88.6%
- Inhibition at 10µM (%) (CDK14/Cyclin Y; experiment 2): 89.3%
